What was measured:
[1] = tested on: human epidennoid cells, virally infected with HSV-2; conditions: cited from earlier work
[2] = tested on: human epidennoid cells, virally infected with HSV-2
[3] = tested on: human epidennoid cells, virally infected with HSV-2; conditions: cited from earlier work; remark: listed apart in the source

Which cell viability [1] does the source give for `CC(=O)OC[C@]12CCC(C)=C[C@H]1O[C@@H]1[C@H](O)[C@@H](OC(C)=O)[C@@]2(C)[C@]12CO2` [DAS] here?
The cell viability was “Neither reduced cell viability”.

What about the “Trichothecene in vitro concentration, Cytotoxic Hi” value [2] of the same compound?
Its value is 200 ng/mL.

What about the “Trichothecene in vitro concentration, Cytotoxic Lo” value [2] of the same compound?
Its value is 6 ng/mL.

And the “Trichothecene in vitro concentration, Inhibitory 80%” value [3]?
The value was 4.0 ng/mL.

What about the “Trichothecene in vitro concentration, Inhibitory 100%” value [3] of the same compound?
The value was 5.0 ng/mL.
